In patent US7812022B2 (GlaxoSmithKline LLC, priority 2004, dated 2010):
pIC50: −log10 of the molar value.

Legend:
ErbB2 or EGFR = molecular target: T1, ErbB2 or EGFR; experiment: ErbB family substrate phosphorylation enzyme assay (HTRF), Method A or Method B; assay type: biochemical
T1 construct: enzymes purified from a baculovirus expression system; Reagent production was conducted essentially as described in Brignola, P. S., et al, (2002) J. Biol. Chem. 277(2): 1576-1585
Method in brief: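 Baculovirus-expressed EGFR or ErbB2 (0.8 or 10 nM in enzyme mix) phosphorylates biotinylated Peptide C with 20 µM ATP and 0.8 µM peptide (substrate-mix levels), MnCl2, pH 7.5. Reaction ran 90 min at 20 °C with EDTA stop and HTRF anti-phosphotyrosine read. Method A: enzyme added last; Method B: 1 h enzyme–compound preincubation.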

[1] = test system: BT474 and HN5 tumor cell lines; experiment: Methylene blue growth inhibition assay (cellular Method A); assay type: cell-based, Human; conditions: Homo sapiens, BT-474, 72 h, 3 days, read-out: Activity (Method): growth inhibition IC50 class
Method in brief: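 Growth inhibition measured by methylene blue staining of biomass (OD 620) after 3 days' compound exposure at 37° C, final DMSO 0.3%. Cell lines: BT474 (10,000/well), HN5 (3,000/well) and Colo205, all in DMEM with 10% FBS; IC50 fitted by nonlinear regression against vehicle-treated wells.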

[2] = Method A: substrate mix added first, reaction started with enzyme mix
[3] = Method B: enzyme mix pre-incubated with compound 1 hour at 20° C., started with substrate mix

Structure (SMILES) | pIC50 [1] | Activity (Method): pIC50 class against ErbB2 or EGFR (ErbB2 or EGFR; [2]) | Activity (Method): pIC50 class against ErbB2 or EGFR (ErbB2 or EGFR; [3])
CCS(=O)(=O)Cc1ccc(Nc2nccc(-c3c(-c4cccc(NC(=O)c5cc(F)ccc5F)c4)nn4ccccc34)n2)cc1 [Example 51, N-(3-{3-[2-({4-[(ethylsulfonyl)methyl]phenyl}amino)-4-pyrimidinyl]pyrazolo[1,5-a]pyridin-2-yl}phenyl)-2,5-difluorobenzamide] | 6.00 to 7.00 | +++ (A) (at least one pIC50 measurement of greater than 7 against either ErbB2 or EGFR) | –
CS(=O)(=O)Cc1ccc(Nc2nccc(-c3c(-c4cccc(NC(=O)c5cc(F)ccc5F)c4)nn4ccccc34)n2)cc1 [Example 53, 2,5-Difluoro-N-(3-{3-[2-({4-[(methylsulfonyl)methyl]-phenyl}amino)-4-pyrimidinyl]pyrazolo[1,5-a]pyridin-2-yl}phenyl)benzamide] | 6.00 to 7.00 | ++ (A) (at least one pIC50 measurement greater than 6 against either ErbB2 or EGFR but no measurement greater than pIC50 of 7) | –
O=C(Nc1cccc(-c2nn3ccccc3c2-c2ccnc(Nc3ccc4c(c3)CNCC4)n2)c1)c1c(F)cccc1F [Example 64, 2,6-Difluoro-N-(3-{3-[2-(1,2,3,4-tetrahydro-7-isoquinolinylamino)-4-pyrimidinyl]pyrazolo[1,5-a]pyridin-2-yl}phenyl)benzamide] | > 7.00 | – | +++ (B) (at least one pIC50 measurement of greater than 7 against either ErbB2 or EGFR)
O=C(Nc1cccc(-c2nn3ccccc3c2-c2ccnc(Nc3ccc4cnccc4c3)n2)c1)c1c(F)cccc1F [Example 65, 2,6-Difluoro-N-(3-{3-[2-(6-isoquinolinylamino)-4-pyrimidinyl]pyrazolo[1,5-a]pyridin-2-yl}phenyl)benzamide] | < 6.00 | – | ++ (B) (at least one pIC50 measurement greater than 6 against either ErbB2 or EGFR but no measurement greater than pIC50 of 7)
O=C(Nc1cccc(-c2nn3ccccc3c2-c2ccnc(Nc3cccc(F)c3)n2)c1)c1cccnc1 [Example 66, N-[3-(3-{2-[(3-fluorophenyl)amino]-4-pyrimidinyl}pyrazolo[1,5-a]pyridin-2-yl)phenyl]-3-pyridinecarboxamide] | 6.00 to 7.00 | – | ++ (B) (at least one pIC50 measurement greater than 6 against either ErbB2 or EGFR but no measurement greater than pIC50 of 7)
O=C(Nc1cccc(-c2nn3ccccc3c2-c2ccnc(Nc3cccc(F)c3)n2)c1)c1ccno1 [Example 67, N-[3-(3-{2-[(3-fluorophenyl)amino]-4-pyrimidinyl}pyrazolo[1,5-a]pyridin-2-yl)phenyl]-5-isoxazolecarboxamide] | 6.00 to 7.00 | – | +++ (B) (at least one pIC50 measurement of greater than 7 against either ErbB2 or EGFR)
O=C(Nc1cccc(-c2nn3ccccc3c2-c2ccnc(Nc3cccc(F)c3)n2)c1)c1ccccc1OC(F)(F)F [Example 68, N-[3-(3-{2-[(3-fluorophenyl)amino]-4-pyrimidinyl}-pyrazolo[1,5-a]pyridin-2-yl)phenyl]-2-[(trifluoromethyl)oxy]benzamide] | 6.00 to 7.00 | – | ++ (B) (at least one pIC50 measurement greater than 6 against either ErbB2 or EGFR but no measurement greater than pIC50 of 7)
O=C(Nc1cccc(-c2nn3ccccc3c2-c2ccnc(Nc3cccc(F)c3)n2)c1)c1ccc(Cl)nc1 [Example 74, 6-Chloro-N-[3-(3-{2-[(3-fluorophenyl)amino]-4-pyrimidinyl}pyrazolo[1,5-a]pyridin-2-yl)phenyl]-3-pyridinecarboxamide] | 6.00 to 7.00 | – | ++ (B) (at least one pIC50 measurement greater than 6 against either ErbB2 or EGFR but no measurement greater than pIC50 of 7)

Second part, led by results:

pIC50 [1] | Structure (SMILES) | Activity (Method): pIC50 class against ErbB2 or EGFR (ErbB2 or EGFR; [2]) | Activity (Method): pIC50 class against ErbB2 or EGFR (ErbB2 or EGFR; [3])
6.00 to 7.00 | O=C(Nc1cccc(-c2nn3ccccc3c2-c2ccnc(Nc3cccc(N4CCCC4=O)c3)n2)c1)c1cc(F)ccc1F [Example 49, 2,5-Difluoro-N-{3-[3-(2-{[3-(2-oxo-1-pyrrolidinyl)phenyl]amino}-4-pyrimidinyl)pyrazolo[1,5-a]pyridin-2-yl]phenyl}benzamide] | +++ (A) (at least one pIC50 measurement of greater than 7 against either ErbB2 or EGFR) | –
6.00 to 7.00 | Cc1ccc(Nc2nccc(-c3c(-c4cccc(NC(=O)c5cc(F)ccc5F)c4)nn4ccccc34)n2)cc1S(N)(=O)=O [Example 52, N-{3-[3-(2-{[3-(Aminosulfonyl)-4-methylphenyl]amino}-4-pyrimidinyl)pyrazolo[1,5-a]pyridin-2-yl]phenyl}-2,5-difluorobenzamide] | +++ (A) (at least one pIC50 measurement of greater than 7 against either ErbB2 or EGFR) | –
> 7.00 | CN1CCc2ccc(Nc3nccc(-c4c(-c5cccc(NC(=O)c6ccccc6)c5)nn5ccccc45)n3)cc2C1 [Example 63, N-[3-(3-{2-[(2-methyl-1,2,3,4-tetrahydro-7-isoquinolinyl)amino]-4-pyrimidinyl}pyrazolo[1,5-a]pyridin-2-yl)phenyl]benzamide] | – | +++ (B) (at least one pIC50 measurement of greater than 7 against either ErbB2 or EGFR)
6.00 to 7.00 | COc1ccccc1C(=O)Nc1cccc(-c2nn3ccccc3c2-c2ccnc(Nc3cccc(F)c3)n2)c1 [Example 69, N-[3-(3-{2-[(3-fluorophenyl)amino]-4-pyrimidinyl}pyrazolo[1,5-a]pyridin-2-yl)phenyl]-2-(methyloxy)benzamide] | – | +++ (B) (at least one pIC50 measurement of greater than 7 against either ErbB2 or EGFR)
6.00 to 7.00 | Cc1cccc(C(=O)Nc2cccc(-c3nn4ccccc4c3-c3ccnc(Nc4cccc(F)c4)n3)c2)c1Cl [Example 70, 2-Chloro-N-[3-(3-{2-[(3-fluorophenyl)amino]-4-pyrimidinyl}pyrazolo[1,5-a]pyridin-2-yl)phenyl]-3-methylbenzamide] | – | ++ (B) (at least one pIC50 measurement greater than 6 against either ErbB2 or EGFR but no measurement greater than pIC50 of 7)
6.00 to 7.00 | Cc1c(F)cccc1C(=O)Nc1cccc(-c2nn3ccccc3c2-c2ccnc(Nc3cccc(F)c3)n2)c1 [Example 71, 3-Fluoro-N-[3-(3-{2-[(3-fluorophenyl)amino]-4-pyrimidinyl}pyrazolo[1,5-a]pyridin-2-yl)phenyl]-2-methylbenzamide] | – | ++ (B) (at least one pIC50 measurement greater than 6 against either ErbB2 or EGFR but no measurement greater than pIC50 of 7)
6.00 to 7.00 | Cc1ccc(F)c(C(=O)Nc2cccc(-c3nn4ccccc4c3-c3ccnc(Nc4cccc(F)c4)n3)c2)c1F [Example 72, 2,6-Difluoro-N-[3-(3-{2-[(3-fluorophenyl)amino]-4-pyrimidinyl}pyrazolo[1,5-a]pyridin-2-yl)phenyl]-3-methylbenzamide] | – | ++ (B) (at least one pIC50 measurement greater than 6 against either ErbB2 or EGFR but no measurement greater than pIC50 of 7)
< 6.00 | O=C(Nc1cccc(-c2nn3ccccc3c2-c2ccnc(Nc3cccc(F)c3)n2)c1)c1ccnc(Cl)c1 [Example 73, 2-Chloro-N-[3-(3-{2-[(3-fluorophenyl)amino]-4-pyrimidinyl}pyrazolo[1,5-a]pyridin-2-yl)phenyl]-4-pyridinecarboxamide] | – | ++ (B) (at least one pIC50 measurement greater than 6 against either ErbB2 or EGFR but no measurement greater than pIC50 of 7)
